Results published in the supplement of paper PMC10307832.

Tests used:
Assay in all cases: relative viability (nuclei count vs DMSO), 5 days (fraction); higher = more cells survive
Carboplatin + Vorinostat = compound: C1CC(C1)(C(=O)O)C(=O)O.[NH2-].[NH2-].[Pt+2] [Carboplatin] + O=C(CCCCCCC(=O)Nc1ccccc1)NO [Vorinostat] (partner 1 µM)
In short: (§1)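 The day after seeding in 1536-well plates, lung cancer cell lines were treated by pin tool with a single drug, or with a fixed anchor-drug dose together with five library-drug doses (not always all listed) in √10 steps. After 5 days, a combined fix-and-stain solution (final 0.05% Triton X-100, 1% formaldehyde, 1 ug/ml Hoechst) was added. Nuclei counted on 4× images gave relative viability as treated counts over vehicle counts, reported as the median of duplicate plates.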

Carboplatin + Pemetrexed = compound: C1CC(C1)(C(=O)O)C(=O)O.[NH2-].[NH2-].[Pt+2] [Carboplatin] + Nc1nc2[nH]cc(CCc3ccc(C(=O)N[C@@H](CCC(=O)O)C(=O)O)cc3)c2c(=O)[nH]1 [Pemetrexed] (partner 0.2 µM)
In short: as §1

Carboplatin + OSI-027 = compound: C1CC(C1)(C(=O)O)C(=O)O.[NH2-].[NH2-].[Pt+2] [Carboplatin] + COc1cccc2cc(-c3nc([C@H]4CC[C@H](C(=O)O)CC4)n4ncnc(N)c34)[nH]c12 [OSI-027] (partner 0.5 µM)
In short: as §1

GSK126 + Pictilisib = compound: CC[C@H](C)N1C=C(C2=C(C=C(C=C21)C3=CN=C(C=C3)N4CCNCC4)C(=O)NCC5=C(C=C(NC5=O)C)C)C [GSK126] + CS(=O)(=O)N1CCN(Cc2cc3nc(-c4cccc5[nH]ncc45)nc(N4CCOCC4)c3s2)CC1 [Pictilisib] (partner 1 µM)
In short: as §1

Cell Line	relative viability (Carboplatin + Vorinostat; first compound 0.08 µM)	relative viability (Carboplatin + Vorinostat; first compound 0.253 µM)	relative viability (Carboplatin + Vorinostat; first compound 0.8 µM)	relative viability (Carboplatin + Vorinostat; first compound 2.53 µM)	relative viability (Carboplatin + Vorinostat; first compound 8 µM)	relative viability (Carboplatin + Pemetrexed; first compound 0.08 µM)	relative viability (Carboplatin + Pemetrexed; first compound 0.253 µM)	relative viability (Carboplatin + Pemetrexed; first compound 0.8 µM)	relative viability (Carboplatin + Pemetrexed; first compound 2.53 µM)	relative viability (Carboplatin + Pemetrexed; first compound 8 µM)	relative viability (Carboplatin + OSI-027; first compound 0.08 µM)	relative viability (Carboplatin + OSI-027; first compound 0.253 µM)	relative viability (Carboplatin + OSI-027; first compound 0.8 µM)	relative viability (Carboplatin + OSI-027; first compound 2.53 µM)	relative viability (Carboplatin + OSI-027; first compound 8 µM)	relative viability (GSK126 + Pictilisib; first compound 0.08 µM)	relative viability (GSK126 + Pictilisib; first compound 0.253 µM)	relative viability (GSK126 + Pictilisib; first compound 0.8 µM)	relative viability (GSK126 + Pictilisib; first compound 2.53 µM)	relative viability (GSK126 + Pictilisib; first compound 8 µM)
LXF-289	0.788	0.787	0.775	0.793	0.713	0.981	0.998	0.902	0.895	0.744	0.882	0.871	0.816	0.828	0.716	0.835	0.791	0.732	0.769	0.8
NCI-H23	0.658	0.632	0.522	0.62	0.343	0.707	0.648	0.634	0.564	0.631	0.843	0.599	0.671	0.575	0.435	0.535	0.568	0.418	0.466	0.512
NCI-H322M	0.994	0.855	0.928	0.91	0.709	0.688	0.601	0.613	0.594	0.616	0.544	0.503	0.599	0.506	0.408	0.431	0.517	0.507	0.509	0.454
NCI-H358	0.735	0.668	0.681	0.664	0.53	0.179	0.21	0.188	0.16	0.174	1	0.878	0.8	0.843	0.611	0.32	0.347	0.37	0.332	0.442
NCI-H441	0.865	0.835	0.588	0.785	0.369	0.289	0.258	0.271	0.243	0.241	0.715	0.668	0.767	0.696	0.451	0.495	0.638	0.432	0.539	0.428
NCI-H460	0.761	0.629	0.582	0.235	0.076	0.0702	0.0594	0.0708	0.068	0.0641	0.778	0.708	0.631	0.332	0.0817	0.371	0.391	0.335	0.361	0.338
NCI-H520	0.668	0.745	0.837	0.775	0.395	0.701	0.791	0.686	0.617	0.493	0.245	0.237	0.317	0.289	0.253	0.265	0.261	0.271	0.256	0.281
NCI-H596	0.669	0.654	0.509	0.368	0.467	0.533	0.473	0.548	0.464	0.475	0.909	0.803	0.781	0.654	0.514	0.386	0.404	0.378	0.382	0.37
NCI-H647	0.39	0.493	0.609	0.646	0.175	0.176	0.18	0.172	0.203	0.143	0.724	0.637	0.692	0.57	0.575	0.441	0.351	0.404	0.528	0.337
NCI-H650	0.504	0.457	0.503	0.366	0.275	0.935	0.97	0.947	1	0.903	0.526	0.514	0.601	0.539	0.356	1.02	0.781	0.884	0.884	0.801
NCI-H661	0.82	0.785	0.733	0.777	0.622	0.942	0.858	0.903	0.916	0.839	0.758	0.824	0.66	0.578	0.478	0.43	0.433	0.401	0.565	0.345
NCI-H838	0.733	0.705	0.728	0.626	0.608	0.271	0.285	0.236	0.244	0.251	0.468	0.32	0.439	0.364	0.391	0.507	0.35	0.403	0.426	0.369
NCI-H1355	0.745	0.673	0.648	0.655	0.559	1.06	1.1	1.09	1	0.892	0.476	0.375	0.413	0.377	0.415	0.476	0.531	0.447	0.499	0.447
NCI-H1395	1.03	0.638	0.847	0.644	0.502	1.02	0.983	0.814	0.61	0.534	0.83	0.597	0.674	0.527	0.52	0.653	0.653	0.798	0.699	0.726
NCI-H1437	0.803	0.869	0.728	0.808	0.598	0.33	0.28	0.301	0.307	0.298	0.935	0.822	0.83	0.749	0.488	0.44	0.504	0.406	0.455	0.405
NCI-H1650	0.64	0.584	0.599	0.459	0.271	0.459	0.46	0.302	0.32	0.318	0.736	0.593	0.653	0.574	0.341	0.568	0.596	0.566	0.794	0.556

Cell Line	relative viability (Carboplatin + Vorinostat; first compound 0.08 µM)	relative viability (Carboplatin + Vorinostat; first compound 0.253 µM)	relative viability (Carboplatin + Vorinostat; first compound 0.8 µM)	relative viability (Carboplatin + Vorinostat; first compound 2.53 µM)	relative viability (Carboplatin + Vorinostat; first compound 8 µM)	relative viability (Carboplatin + Pemetrexed; first compound 0.08 µM)	relative viability (Carboplatin + Pemetrexed; first compound 0.253 µM)	relative viability (Carboplatin + Pemetrexed; first compound 0.8 µM)	relative viability (Carboplatin + Pemetrexed; first compound 2.53 µM)	relative viability (Carboplatin + Pemetrexed; first compound 8 µM)	relative viability (Carboplatin + OSI-027; first compound 0.08 µM)	relative viability (Carboplatin + OSI-027; first compound 0.253 µM)	relative viability (Carboplatin + OSI-027; first compound 0.8 µM)	relative viability (Carboplatin + OSI-027; first compound 2.53 µM)	relative viability (Carboplatin + OSI-027; first compound 8 µM)	relative viability (GSK126 + Pictilisib; first compound 0.08 µM)	relative viability (GSK126 + Pictilisib; first compound 0.253 µM)	relative viability (GSK126 + Pictilisib; first compound 0.8 µM)	relative viability (GSK126 + Pictilisib; first compound 2.53 µM)	relative viability (GSK126 + Pictilisib; first compound 8 µM)
NCI-H1651	0.617	0.556	0.588	0.524	0.483	0.702	0.61	0.552	0.534	0.56	0.734	0.662	0.706	0.506	0.487	0.55	0.548	0.601	0.608	0.584
NCI-H1666	1.09	0.966	1.04	0.921	0.665	0.876	0.857	0.845	0.846	0.819	0.831	0.818	0.831	0.644	0.566	0.558	0.483	0.379	0.384	0.528
NCI-H1734	0.823	0.83	0.78	0.779	0.545	0.423	0.422	0.495	0.408	0.419	0.707	0.674	0.63	0.528	0.572	0.49	0.403	0.408	0.43	0.45
NCI-H1755	0.793	0.834	0.874	0.722	0.685	0.436	0.371	0.437	0.443	0.386	0.823	0.786	0.712	0.729	0.74	0.512	0.451	0.459	0.46	0.384
NCI-H1793	0.884	0.796	0.62	0.682	0.745	1.1	0.908	0.918	0.866	0.93	0.32	0.337	0.284	0.296	0.312	0.224	0.37	0.36	0.502	0.343
NCI-H1915	0.508	0.506	0.513	0.48	0.299	0.487	0.531	0.505	0.47	0.416	0.616	0.576	0.673	0.601	0.408	0.937	0.874	1.04	0.941	0.927
NCI-H1944	0.533	0.61	0.59	0.523	0.368	0.644	0.557	0.643	0.526	0.485	0.539	0.407	0.41	0.382	0.317	0.356	0.349	0.367	0.36	0.391
NCI-H1975	0.783	0.711	0.579	0.534	0.656	0.297	0.266	0.277	0.298	0.268	0.901	0.823	0.713	0.762	0.754	0.328	0.301	0.321	0.291	0.274
NCI-H1993	0.801	0.809	0.8	0.712	0.522	0.684	0.568	0.513	0.67	0.608	0.463	0.556	0.566	0.51	0.498	0.841	0.795	0.828	0.902	0.782
NCI-H2009	0.75	0.771	0.723	0.704	0.477	1.04	0.983	1	0.958	0.654	0.699	0.597	0.61	0.56	0.402	1.14	0.69	0.827	0.908	0.908
NCI-H2023	0.628	0.733	0.434	0.299	0.11	0.248	0.209	0.196	0.15	0.152	0.481	0.424	0.318	0.198	0.123	0.26	0.253	0.247	0.306	0.256
NCI-H2085	0.803	0.764	0.839	0.761	0.711	1.03	0.846	0.974	0.948	0.899	0.719	0.849	0.783	0.64	0.628	0.484	0.358	0.369	0.485	0.49
NCI-H2087	0.981	1.23	0.62	0.531	0.396	0.619	0.647	0.618	0.632	0.604	0.656	0.56	0.536	0.508	0.41	1.08	0.745	0.815	0.894	0.844
NCI-H2126	0.804	0.894	0.832	0.823	0.856	0.759	0.64	0.724	0.698	0.647	0.812	0.654	0.677	0.635	0.595	0.497	0.531	0.523	0.496	0.502
NCI-H2170	0.94	0.811	0.89	0.737	0.413	0.246	0.252	0.265	0.286	0.236	0.715	0.723	0.86	0.783	0.605	0.333	0.281	0.35	0.322	0.346
NCI-H2228	0.748	0.0948	0.623	0.566	0.343	0.397	0.338	0.311	0.376	0.313	0.685	0.63	0.597	0.64	0.349	0.357	0.519	0.494	0.497	0.42
